What was measured:
Crude diglycosidase = assay: Examination of substrate concentration in the conversion into isoflavone aglycons by diglycosidase using soybean materials; assay type: biochemical, Penicillium multicolor IAM7153;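 for Decomposition efficiency: ratio of each glycoside/aglycon within its isoflavone family: percent of the isoflavone family total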
Method in brief: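 Reaction at 55° C, shaken, pH 4.0 (20 mM acetate), using crude diglycosidase from a 1.88 AU/mL enzyme solution on soy flour, soymilk, defatted soybean or soy protein concentrate at 2, 5, 10, 20 or 30% (w/v). Isoflavone aglycons quantified by HPLC of ethanol extracts at 0, 1, 3, 6 h.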

[1] = tested on: β-Glucosidase derived from A. niger; assay: Reactivity toward various isoflavone glycosides (HPLC); assay type: biochemical, Aspergillus niger; set-up: glucoside / aglycon: unit not given here; details: 55 °C, pH 4.0
Method in brief: (§1)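 Aglycone liberation was measured by reversed-phase HPLC (260 nm, calibration-curve quantitation) after ethanol extraction at 0, 1, 3 and 6 h. Reactions ran at 55° C, pH 4.0 (20 mM acetate), with each glycoside (from 2 mM methanol stock) and 0.75 AU/mL enzyme solution.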

[2] = tested on: Diglycosidase derived from A. fumigatus; assay: as above; assay type: biochemical, Aspergillus fumigatus; set-up: unit not given here; details: 55 °C, pH 4.0
Method in brief: as §1

- Decomposition efficiency: ratio of each glycoside/aglycon within its isoflavone family (Crude diglycosidase; roasted soy flour, substrate concentration 2%, heat treatment of enzyme no, reaction time 0 h): not detected
- Decomposition efficiency: ratio of each glycoside/aglycon within its isoflavone family (Crude diglycosidase; roasted soy flour, substrate concentration 2%, heat treatment of enzyme no, reaction time 1 h): not detected
- Decomposition efficiency: ratio of each glycoside/aglycon within its isoflavone family (Crude diglycosidase; roasted soy flour, substrate concentration 2%, heat treatment of enzyme no, reaction time 3 h): not detected
- Decomposition efficiency: ratio of each glycoside/aglycon within its isoflavone family (Crude diglycosidase; roasted soy flour, substrate concentration 2%, heat treatment of enzyme no, reaction time 6 h): not detected
- Decomposition efficiency: ratio of each glycoside/aglycon within its isoflavone family (Crude diglycosidase; roasted soy flour, substrate concentration 2%, heat treatment of enzyme yes, reaction time 6 h): not detected
- Decomposition efficiency: ratio of each glycoside/aglycon within its isoflavone family (Crude diglycosidase; roasted soy flour, substrate concentration 5%, heat treatment of enzyme no, reaction time 0 h): not detected
- Decomposition efficiency: ratio of each glycoside/aglycon within its isoflavone family (Crude diglycosidase; roasted soy flour, substrate concentration 5%, heat treatment of enzyme no, reaction time 1 h): not detected
- Decomposition efficiency: ratio of each glycoside/aglycon within its isoflavone family (Crude diglycosidase; roasted soy flour, substrate concentration 5%, heat treatment of enzyme no, reaction time 3 h): not detected
- Decomposition efficiency: ratio of each glycoside/aglycon within its isoflavone family (Crude diglycosidase; roasted soy flour, substrate concentration 5%, heat treatment of enzyme no, reaction time 6 h): not detected
- Decomposition efficiency: ratio of each glycoside/aglycon within its isoflavone family (Crude diglycosidase; roasted soy flour, substrate concentration 5%, heat treatment of enzyme yes, reaction time 6 h): not detected
- Decomposition efficiency: ratio of each glycoside/aglycon within its isoflavone family (Crude diglycosidase; roasted soy flour, substrate concentration 10%, heat treatment of enzyme no, reaction time 0 h): not detected
- Decomposition efficiency: ratio of each glycoside/aglycon within its isoflavone family (Crude diglycosidase; roasted soy flour, substrate concentration 10%, heat treatment of enzyme no, reaction time 1 h): not detected
- Decomposition efficiency: ratio of each glycoside/aglycon within its isoflavone family (Crude diglycosidase; roasted soy flour, substrate concentration 10%, heat treatment of enzyme no, reaction time 3 h): not detected
- Decomposition efficiency: ratio of each glycoside/aglycon within its isoflavone family (Crude diglycosidase; roasted soy flour, substrate concentration 10%, heat treatment of enzyme no, reaction time 6 h): not detected
- Decomposition efficiency: ratio of each glycoside/aglycon within its isoflavone family (Crude diglycosidase; roasted soy flour, substrate concentration 10%, heat treatment of enzyme yes, reaction time 6 h): not detected
- Decomposition efficiency: ratio of each glycoside/aglycon within its isoflavone family (Crude diglycosidase; roasted soy flour, substrate concentration 20%, heat treatment of enzyme no, reaction time 0 h): not detected
- Decomposition efficiency: ratio of each glycoside/aglycon within its isoflavone family (Crude diglycosidase; roasted soy flour, substrate concentration 20%, heat treatment of enzyme no, reaction time 1 h): not detected
- Decomposition efficiency: ratio of each glycoside/aglycon within its isoflavone family (Crude diglycosidase; roasted soy flour, substrate concentration 20%, heat treatment of enzyme no, reaction time 3 h): not detected
- Decomposition efficiency: ratio of each glycoside/aglycon within its isoflavone family (Crude diglycosidase; roasted soy flour, substrate concentration 20%, heat treatment of enzyme no, reaction time 6 h): not detected
- Decomposition efficiency: ratio of each glycoside/aglycon within its isoflavone family (Crude diglycosidase; roasted soy flour, substrate concentration 20%, heat treatment of enzyme yes, reaction time 6 h): not detected
- Decomposition efficiency: ratio of each glycoside/aglycon within its isoflavone family (Crude diglycosidase; roasted soy flour, substrate concentration 30%, heat treatment of enzyme no, reaction time 0 h): not detected
- Decomposition efficiency: ratio of each glycoside/aglycon within its isoflavone family (Crude diglycosidase; roasted soy flour, substrate concentration 30%, heat treatment of enzyme no, reaction time 1 h): not detected
- Decomposition efficiency: ratio of each glycoside/aglycon within its isoflavone family (Crude diglycosidase; roasted soy flour, substrate concentration 30%, heat treatment of enzyme no, reaction time 3 h): not detected
- Decomposition efficiency: ratio of each glycoside/aglycon within its isoflavone family (Crude diglycosidase; roasted soy flour, substrate concentration 30%, heat treatment of enzyme no, reaction time 6 h): not detected
- Decomposition efficiency: ratio of each glycoside/aglycon within its isoflavone family (Crude diglycosidase; roasted soy flour, substrate concentration 30%, heat treatment of enzyme yes, reaction time 6 h): not detected
- Decomposition efficiency: ratio of each glycoside/aglycon within its isoflavone family (Crude diglycosidase; soymilk, substrate concentration 2%, heat treatment of enzyme no, reaction time 0 h): 32.2%
- Decomposition efficiency: ratio of each glycoside/aglycon within its isoflavone family (Crude diglycosidase; soymilk, substrate concentration 2%, heat treatment of enzyme no, reaction time 1 h): 27.5%
- Decomposition efficiency: ratio of each glycoside/aglycon within its isoflavone family (Crude diglycosidase; soymilk, substrate concentration 2%, heat treatment of enzyme no, reaction time 3 h): 9.9%
- Decomposition efficiency: ratio of each glycoside/aglycon within its isoflavone family (Crude diglycosidase; soymilk, substrate concentration 2%, heat treatment of enzyme no, reaction time 6 h): 2.9%
- Decomposition efficiency: ratio of each glycoside/aglycon within its isoflavone family (Crude diglycosidase; soymilk, substrate concentration 2%, heat treatment of enzyme yes, reaction time 6 h): 47.0%
- Decomposition efficiency: ratio of each glycoside/aglycon within its isoflavone family (Crude diglycosidase; soymilk, substrate concentration 5%, heat treatment of enzyme no, reaction time 0 h): 53.6%
- Decomposition efficiency: ratio of each glycoside/aglycon within its isoflavone family (Crude diglycosidase; soymilk, substrate concentration 5%, heat treatment of enzyme no, reaction time 1 h): 34.2%
- Decomposition efficiency: ratio of each glycoside/aglycon within its isoflavone family (Crude diglycosidase; soymilk, substrate concentration 5%, heat treatment of enzyme no, reaction time 3 h): 15.9%
- Decomposition efficiency: ratio of each glycoside/aglycon within its isoflavone family (Crude diglycosidase; soymilk, substrate concentration 5%, heat treatment of enzyme no, reaction time 6 h): 6.1%
- Decomposition efficiency: ratio of each glycoside/aglycon within its isoflavone family (Crude diglycosidase; soymilk, substrate concentration 5%, heat treatment of enzyme yes, reaction time 6 h): 47.6%
- Decomposition efficiency: ratio of each glycoside/aglycon within its isoflavone family (Crude diglycosidase; soymilk, substrate concentration 10%, heat treatment of enzyme no, reaction time 0 h): 53.4%
- Decomposition efficiency: ratio of each glycoside/aglycon within its isoflavone family (Crude diglycosidase; soymilk, substrate concentration 10%, heat treatment of enzyme no, reaction time 1 h): 37.4%
- Decomposition efficiency: ratio of each glycoside/aglycon within its isoflavone family (Crude diglycosidase; soymilk, substrate concentration 10%, heat treatment of enzyme no, reaction time 3 h): 20.5%
- Decomposition efficiency: ratio of each glycoside/aglycon within its isoflavone family (Crude diglycosidase; soymilk, substrate concentration 10%, heat treatment of enzyme no, reaction time 6 h): 10.7%
- Decomposition efficiency: ratio of each glycoside/aglycon within its isoflavone family (Crude diglycosidase; soymilk, substrate concentration 10%, heat treatment of enzyme yes, reaction time 6 h): 47.8%
- Decomposition efficiency: ratio of each glycoside/aglycon within its isoflavone family (Crude diglycosidase; soymilk, substrate concentration 20%, heat treatment of enzyme no, reaction time 0 h): 53.6%
- Decomposition efficiency: ratio of each glycoside/aglycon within its isoflavone family (Crude diglycosidase; soymilk, substrate concentration 20%, heat treatment of enzyme no, reaction time 1 h): 41.2%
- Decomposition efficiency: ratio of each glycoside/aglycon within its isoflavone family (Crude diglycosidase; soymilk, substrate concentration 20%, heat treatment of enzyme no, reaction time 3 h): 21.5%
- Decomposition efficiency: ratio of each glycoside/aglycon within its isoflavone family (Crude diglycosidase; soymilk, substrate concentration 20%, heat treatment of enzyme no, reaction time 6 h): 16.4%
- Decomposition efficiency: ratio of each glycoside/aglycon within its isoflavone family (Crude diglycosidase; soymilk, substrate concentration 20%, heat treatment of enzyme yes, reaction time 6 h): 48.1%
- Decomposition efficiency: ratio of each glycoside/aglycon within its isoflavone family (Crude diglycosidase; soymilk, substrate concentration 30%, heat treatment of enzyme no, reaction time 0 h): 53.5%
- Decomposition efficiency: ratio of each glycoside/aglycon within its isoflavone family (Crude diglycosidase; soymilk, substrate concentration 30%, heat treatment of enzyme no, reaction time 1 h): 43.8%
- Decomposition efficiency: ratio of each glycoside/aglycon within its isoflavone family (Crude diglycosidase; soymilk, substrate concentration 30%, heat treatment of enzyme no, reaction time 3 h): 29.7%
- Decomposition efficiency: ratio of each glycoside/aglycon within its isoflavone family (Crude diglycosidase; soymilk, substrate concentration 30%, heat treatment of enzyme no, reaction time 6 h): 21.9%
- Decomposition efficiency: ratio of each glycoside/aglycon within its isoflavone family (Crude diglycosidase; soymilk, substrate concentration 30%, heat treatment of enzyme yes, reaction time 6 h): 46.9%
- Decomposition efficiency of daidzin family in defatted soybean (Crude diglycosidase; substrate concentration 2%, heat treatment of enzyme no, reaction time 0 h): 42.2
- Decomposition efficiency of daidzin family in defatted soybean (Crude diglycosidase; substrate concentration 2%, heat treatment of enzyme no, reaction time 1 h): 35.2
- Decomposition efficiency of daidzin family in defatted soybean (Crude diglycosidase; substrate concentration 2%, heat treatment of enzyme no, reaction time 3 h): 21.2
- Decomposition efficiency of daidzin family in defatted soybean (Crude diglycosidase; substrate concentration 2%, heat treatment of enzyme no, reaction time 6 h): 16.5
- Decomposition efficiency of daidzin family in defatted soybean (Crude diglycosidase; substrate concentration 2%, heat treatment of enzyme yes, reaction time 6 h): 38.1
- Decomposition efficiency of daidzin family in defatted soybean (Crude diglycosidase; substrate concentration 5%, heat treatment of enzyme no, reaction time 0 h): 41.1
- Decomposition efficiency of daidzin family in defatted soybean (Crude diglycosidase; substrate concentration 5%, heat treatment of enzyme no, reaction time 1 h): 37.7
- Decomposition efficiency of daidzin family in defatted soybean (Crude diglycosidase; substrate concentration 5%, heat treatment of enzyme no, reaction time 3 h): 30.6
- Decomposition efficiency of daidzin family in defatted soybean (Crude diglycosidase; substrate concentration 5%, heat treatment of enzyme no, reaction time 6 h): 21.0
- Decomposition efficiency of daidzin family in defatted soybean (Crude diglycosidase; substrate concentration 5%, heat treatment of enzyme yes, reaction time 6 h): 38.1
- Decomposition efficiency of daidzin family in defatted soybean (Crude diglycosidase; substrate concentration 10%, heat treatment of enzyme no, reaction time 0 h): 39.7
- Decomposition efficiency of daidzin family in defatted soybean (Crude diglycosidase; substrate concentration 10%, heat treatment of enzyme no, reaction time 1 h): 39.5
- Decomposition efficiency of daidzin family in defatted soybean (Crude diglycosidase; substrate concentration 10%, heat treatment of enzyme no, reaction time 3 h): 34.2
- Decomposition efficiency of daidzin family in defatted soybean (Crude diglycosidase; substrate concentration 10%, heat treatment of enzyme no, reaction time 6 h): 29.0
- Decomposition efficiency of daidzin family in defatted soybean (Crude diglycosidase; substrate concentration 10%, heat treatment of enzyme yes, reaction time 6 h): 37.0
- aglycon ([1]; Reaction time 0 h): 0
- glucoside ([1]; Reaction time 0 h): 100
- aglycon ([1]; Reaction time 1 h): 4.5
- glucoside ([1]; Reaction time 1 h): 95.5
- aglycon ([1]; Reaction time 3 h): 9.3
- glucoside ([1]; Reaction time 3 h): 90.7
- aglycon ([1]; Reaction time 6 h): 16
- glucoside ([1]; Reaction time 6 h): 84
- aglycon ([2]; Reaction time 0 h): 0
- glucoside ([2]; Reaction time 0 h): 100
- aglycon ([2]; Reaction time 1 h): 10
- glucoside ([2]; Reaction time 1 h): 90
- aglycon ([2]; Reaction time 3 h): 20.5
- glucoside ([2]; Reaction time 3 h): 79.5
- aglycon ([2]; Reaction time 6 h): 32.3
- glucoside ([2]; Reaction time 6 h): 67.7
Structure (SMILES): O=C(O)CC(=O)OC[C@H]1O[C@@H](Oc2ccc3c(=O)c(-c4ccc(O)cc4)coc3c2)[C@H](O)[C@@H](O)[C@@H]1O [malonyldaidzin, 6″-O-malonyldaidzin]
